What all share (assay type): cell-based, mouse
One assay concerns mTORC1. The assay can be described thus: Western blot of GLUL, p-S6K1, p-4EBP1 in cultured ACMs with Asns KD. The settings on record: Asn treatment of D4 Asns^KD ACMs. As for the experimental part:
Protein extraction was carried out using 6 M urea lysis buffer with 1 mM dithiothreitol, protease inhibitor and phosphatase inhibitor. For protein extraction from cultured ACMs and purified CMs, lysis buffer was added directly to the cells, followed by vigorous pipetting. For protein extraction from mouse heart apex, a piece of apex tissue resected from each mouse heart was weighted and submerged in 500 μL lysis buffer in a 2 mL Sarstedt tube. One single stainless-steel bead (diameter 5 mm) was added to each tube containing apex tissue in lysis buffer. The TissueLyser II was assembled as per manufacturer's guidelines with pre-chilled adapters. The apex tissue was homogenised for 20 s at 30 Hz for two rounds, until no visible tissue debris was observed. Protein quantification was done using Bio-Rad Protein Assay Kit I as per manufacturer's guidelines.
The protein lysate with loading buffer was heated at 60° C. for 10 mins before loading onto a 10% SDS-polyacrylamide gel. After transfer, the blotting membrane was blocked in 5% blotting-grade blocker in TBST for 1 hour, followed by primary antibody incubation at 4° C. overnight and secondary antibody incubation at room temperature (R.T.) for 1 hour. The blot was detected by ECL substrate reaction and exposure on a ChemiDoc™ touch imaging system (BioRad). The quantification of protein expression level was performed using Fiji software. […]
For orientation: Immunoblotting shows a protein as a band on a membrane.

The subject of assay [1] is cultured ACMs. Nature of the assay: Propidium iodide (PI) staining of cultured ACMs (CM death). The settings on record: eliminating Asn in cultured ACMs. As for the experimental part:
Purified CMs were either directly lysed for RNA and protein extraction, or pre-plated on uncoated cell culture dishes for 1 hour to further remove non-CMs before culture on laminin-coated cell culture plates. During the first two days of culturing (D0 and D1), 1 µM of blebbistatin (Sigma-Aldrich) was added as a specific myosin II inhibitor (see Kabaeva Z et al., 2008). Starting from D2, blebbistatin was removed to accelerate morphological changes of CMs. 10% FBS was included in the culture media during the whole culture procedure, and the small colonies of non-CMs were carefully scraped under a microscope and washed away daily. Images of CMs were captured using the EVOS® FL Cell Imaging System (Thermo Fisher) under different channels. PI (final concentration 1 μg/mL) and Hoechst (final concentration 1 μg/mL) was added at a to cultured ACMs, and incubated at 37° C. for 45 mins. The ACMs were immediately imaged by Nikon inverted microscope Eclipse Ti-E. For each well in the cell cultured dishes, 8 to 9 random regions were imaged. PI+ CMs were quantified using Fiji software.

The subject of assay [2] is cultured ACMs. Nature of the assay: RT-qPCR of cell cycle genes in cultured ACMs. The procedure: For freshly isolated mouse CMs, a total number of about 120,000 CMs (⅛ of total CMs) per heart were lysed by 1 mL TRIzol™ Reagent. To lyse cultured CMs, 1 mL TRIzol™ Reagent was added to each well in 12-well and 6-well cell culture plates. Total RNA extraction was performed as per manufacturer's protocol.
cDNA was synthesised with oligo dT and random primers using the qScript™ cDNA Synthesis Kit. qPCR was performed with PerfeCTa® Low Rox™ ToughMix™ (Quantabio) on a real-time PCR system. All qPCR data were normalised to the expression of housekeeping genes Gapdh and Rplp0.
(In qPCR the cycle at which signal appears reflects the starting amount.)

Regarding `NC(=O)C[C@H](N)C(=O)O` [Asn, asparagine], in the assay on mTORC1, the p-4EBP1 result was “restored” and the p-S6K1 result is given as “promoted”.

B1: L-asparaginase (protein, UniProt P00805 23-348, looked up)
L-asparaginase 2: LPNITILATGGTIAGGGDSATKSNYTVGKVGVENLVNAVPQLKDIANVKGEQVVNIGSQDMNDNVWLTLAKKINTDCDKTDGFVITHGTDTMEETAYFLDLTVKCDKPVVMVGAMRPSTSMSADGPFNLYNAVVTAADKASANRGVLVVMNDTVLDGRDVTKTNTTDVATFKSVNYGPLGYIHNGKIDYQRTPARKHTSDTPFDVSKLNELPKVGIVYNYANASDLPAKALVDAGYDGIVSAGVGNGNLYKSVFDTLATAAKTGTAVVRSSRVPTGATTQDAEVDDAKYGFVASGTLNPQKARVLLQLALTQTKDPQQIQQIFNQY
Turning to B1, the cell death entry in the assay on cultured ACMs [1] is listed as “did not induce more cell death”. In addition, the “expression of cell cycle genes (Cdk1, Mki67, Aukrb)” value with cultured ACMs [2] was “diminished”.

Values taken from patent US20260235604A1, “A NOVEL MARKER FOR CARDIOMYOCYTES DEDIFFERENTIATION” (National University of Singapore, priority 2023, published 2026).
